EC50 data for five molecules are collected here from patent publication US10450378B2, “Cytotoxic and anti-mitotic compounds, and methods of using the same” (priority 2014, dated 2019).

What all share (assay): Cellular cytotoxicity of compounds of Formula I, Example 3.1
What all share (type): cell-based

The test system of test [1] is Human T-cell leukemia cell line Jurkat. The following applies: Homo sapiens, Jurkat, read-out: EC50 (nM) Jurkat. How it is done: (§1) Compounds were tested on one or more of Human T-cell leukemia cell line Jurkat (ATCC: TIB-152); Human breast cancer cell lines HCC1954 (ATCC: CRL-2338) and JIMT-1 (DSMZ: ACC 589); Human Pancreatic cell line BxPC-3 (ATCC: CRL.1687), Human ovarian adenocarcinoma cell line SK-OV-3 (ATCC: HTB-77) and Human gastric carcinoma cell line NCI-N87 (ATCC: CRL. 5822); to assess their cytotoxicity.
(§2) Briefly, cells were obtained from commercial sources and cultured as described in the product sheet provided. Cells were removed from their culture vessels and the resulting cell suspension was counted using a ViCell (Beckman Coulter), then seeded at 25,000 cells/mL (2,500 cells/well) in Costar 3904 black walled, flat bottomed 96-well plates (cells were seeded in the inner 60 wells of 96-well TC plates, and outer edge wells filled with water). Adherent cell lines were incubated for one night at 37° C./5% CO2 atmosphere to allow the cells to attach to the microtiter plate surface, while suspension (Jurkat) cells were plated immediately before use. Cytotoxins were dissolved and serially diluted in dimethyl sulfoxide and then the solutions were added to complete growth medium at five-times the desired maximum final concentration. The cytotoxins were then titrated in growth medium, normally 1:3, over eight steps. A control with no test article present (growth medium alone) was included on each microtiter plate in sextuplicate. The prepared toxin titrations were added (25 μL/well) in triplicate to each cell line assayed. The cells and titrations were incubated at 37° C./5% CO2 for three nights (Jurkat) and five nights (all other cell lines). After the incubation, cell viability was measured using CellTiter-Glo® by adding 30 μL of prepared CellTiter-Glo® reagent to each assay well. The mixtures were incubated for at least twenty minutes in the dark prior to measuring emitted luminescence using a microplate luminometer (500 ms integration time). The collected relative luminescence units (RLU) were converted to % cytotoxicity using the growth medium alone control mentioned above (% Cytotoxicity=1-[well RLU/average medium alone control RLU]×100%).

The test system of test [2] is Human Pancreatic cell line BxPC-3. As to conditions: five nights, CellTiter-Glo. As to the method:
as §1, §2

In test [3] the test system is Human gastric carcinoma cell line NCI-N87. The following applies: five nights, CellTiter-Glo. As to the method:
as §1, §2

Where two headings read alike, the source gives them in different places.

As to `CC[C@H](C)[C@@H]([C@@H](CC(=O)N1CCC[C@H]1[C@H](OC)[C@@H](C)C(=O)N[C@@H](Cc1ccccc1)C(=O)NS(=O)(=O)c1ccc(CNC(=O)C(F)(F)F)cc1)OC)N(C)C(=O)[C@@H](NC(=O)[C@H](C(C)C)N(C)C)C(C)C` [Compound 23, (S)-2-((S)-2-(Dimethylamino)-3-methylbutanamido)-N-((3R,4S,5S)-3-methoxy-1-((S)-2-((1R,2R)-1-methoxy-2-methyl-3-oxo-3-(((S)-1-oxo-3-phenyl-1-((4-((2,2,2-trifluoroacetamido)methyl)phenyl)sulfonamido)propan-2-yl)amino)propyl)pyrrolidin-1-yl)-5-methyl-1-oxoheptan-4-yl)-N,3-dimethylbutanamide], the EC50 in test [1] was determined as 11.8 nM; in test [2] it was 17.2 nM; in test [3], 11.3 nM.

`CC[C@H](C)[C@@H]([C@@H](CC(=O)N1CCC[C@H]1[C@H](OC)[C@@H](C)C(=O)N[C@@H](Cc1ccccc1)C(=O)NS(=O)(=O)c1ccc(CN)cc1)OC)N(C)C(=O)[C@@H](NC(=O)[C@H](C(C)C)N(C)C)C(C)C` [Compound 24, (S)-N-((3R,4S,5S)-1-((S)-2-((1R,2R)-3-(((S)-1-((4-(Aminomethyl)phenyl)sulfonamido)-1-oxo-3-phenylpropan-2-yl)amino)-1-methoxy-2-methyl-3-oxopropyl)pyrrolidin-1-yl)-3-methoxy-5-methyl-1-oxoheptan-4-yl)-2-((S)-2-(dimethylamino)-3-methylbutanamido)-N,3-dimethylbutanamide]: the EC50 in test [1] (three nights, CellTiter-Glo) is ~100 nM; in test [2], > 100 nM; in test [3] it was > 100 nM.

For the molecule `CC[C@H](C)[C@@H]([C@@H](CC(=O)N1CCC[C@H]1[C@H](OC)[C@@H](C)C(=O)NS(=O)(=O)Cc1ccc(CNC(=O)C(F)(F)F)cc1)OC)N(C)C(=O)[C@@H](NC(=O)[C@H](C(C)C)N(C)C)C(C)C` [Compound 25, (S)-2-((S)-2-(Dimethylamino)-3-methylbutanamido)-N-((3R,4S,5S)-3-methoxy-1-((S)-2-((1R,2R)-1-methoxy-2-methyl-3-oxo-3-(((4-((2,2,2-trifluoroacetamido)methyl)phenyl)methyl)sulfonamido)propyl)pyrrolidin-1-yl)-5-methyl-1-oxoheptan-4-yl)-N,3-dimethylbutanamide], the concentration giving a half-maximal response (EC50) in test [1] (three nights, CellTiter-Glo) was 34.3 nM; in test [2], > 100 nM; in test [3] it was > 100 nM.

For the molecule `CC[C@H](C)[C@@H]([C@@H](CC(=O)N1CCC[C@H]1[C@H](OC)[C@@H](C)C(=O)N[C@@H](Cc1ccccc1)C(=O)NS(=O)(=O)Cc1ccc(CNC(=O)C(F)(F)F)cc1)OC)N(C)C(=O)[C@@H](NC(=O)[C@H](C(C)C)N(C)C)C(C)C` [Compound 27, (S)-2-((S)-2-(Dimethylamino)-3-methylbutanamido)-N-((3R,4S,5S)-3-methoxy-1-((S)-2-((1R,2R)-1-methoxy-2-methyl-3-oxo-3-(((S)-1-oxo-3-phenyl-1-(((4-((2,2,2-trifluoroacetamido)methyl)phenyl)methyl)sulfonamido)propan-2-yl)amino)propyl)pyrrolidin-1-yl)-5-methyl-1-oxoheptan-4-yl)-N,3-dimethylbutanamide], the concentration for a half-maximal effect (EC50) in test [1] was 24.2 nM; in test [2], 19 nM; in test [3] it was 17.4 nM.

In the case of `CC[C@H](C)[C@@H]([C@@H](CC(=O)N1CCC[C@H]1[C@H](OC)[C@@H](C)C(=O)N[C@@H](Cc1ccccc1)C(=O)NS(=O)(=O)Cc1ccc(CN)cc1)OC)N(C)C(=O)[C@@H](NC(=O)[C@H](C(C)C)N(C)C)C(C)C` [Compound 28, (S)-N-((3R,4S,5S)-1-((S)-2-((1R,2R)-3-(((S)-1-(((4-(Aminomethyl)phenyl)methyl)sulfonamido)-1-oxo-3-phenylpropan-2-yl)amino)-1-methoxy-2-methyl-3-oxopropyl)pyrrolidin-1-yl)-3-methoxy-5-methyl-1-oxoheptan-4-yl)-2-((S)-2-(dimethylamino)-3-methylbutanamido)-N,3-dimethylbutanamide], the EC50 in test [1] (three nights, CellTiter-Glo) was ~100 nM; in test [2], > 100 nM; in test [3], > 100 nM.
